From the NIST ThermoML archive (doi:10.1016/j.jct.2012.06.031)

Assay: xn = mol fraction of the nth substance listed
Conditions: 101 kPa, Liquid; for viscosity: Concentric cylinders viscometry; for mass density: Vibrating tube method

OCCCO [propan-1,3-diol] + c1ccncc1
Conditions	mass density, 308.15 K [kg/m3]	mass density, 313.15 K [kg/m3]	mass density, 318.15 K [kg/m3]	mass density, 323.15 K [kg/m3]	viscosity, 308.15 K [mPa·s]	viscosity, 313.15 K [mPa·s]	viscosity, 318.15 K [mPa·s]	viscosity, 323.15 K [mPa·s]
x2 = 0	1043.64	1040.49	1037.31	1034.12	26.58	21.74	17.95	14.96
x2 = 0.0999	1037.24	1033.89	1030.51	1027.12	20.48	16.82	13.94	11.75
x2 = 0.2	1030.94	1027.39	1023.82	1020.24	14.88	12.32	10.31	8.779
x2 = 0.3	1024.12	1020.38	1016.62	1012.83	10.26	8.615	7.299	6.286
x2 = 0.4001	1017.01	1013.08	1009.13	1005.15	6.845	5.832	5.033	4.412
x2 = 0.5	1009.66	1005.55	1001.41	997.251	4.549	3.951	3.455	3.078
x2 = 0.5999	1001.93	997.629	993.305	988.961	2.976	2.636	2.35	2.139
x2 = 0.7	994	989.518	985.015	980.49	2.033	1.835	1.663	1.53
x2 = 0.7998	985.773	981.102	976.412	971.701	1.424	1.307	1.204	1.119
x2 = 0.8998	977.312	972.452	967.572	962.672	1.05	0.975	0.9082	0.8532
